# Assay results: ChEMBL document CHEMBL5678818, “Discovery of potent SOS1 inhibitors that block RAS activation via disruption of the RAS-SOS1 interaction” (Proc Natl Acad Sci U S A, 2019)
# Key:
# [1] = target: T1, Mitogen-activated protein kinase kinase kinase kinase 3 (Homo sapiens) (UniProt Q8IVH8); assay: Inhibition of MAP4K3 (unknown origin) assessed as residual activity at 100 nM by KINOMEscan analysis relative to control
# T1 sequence (whole entry): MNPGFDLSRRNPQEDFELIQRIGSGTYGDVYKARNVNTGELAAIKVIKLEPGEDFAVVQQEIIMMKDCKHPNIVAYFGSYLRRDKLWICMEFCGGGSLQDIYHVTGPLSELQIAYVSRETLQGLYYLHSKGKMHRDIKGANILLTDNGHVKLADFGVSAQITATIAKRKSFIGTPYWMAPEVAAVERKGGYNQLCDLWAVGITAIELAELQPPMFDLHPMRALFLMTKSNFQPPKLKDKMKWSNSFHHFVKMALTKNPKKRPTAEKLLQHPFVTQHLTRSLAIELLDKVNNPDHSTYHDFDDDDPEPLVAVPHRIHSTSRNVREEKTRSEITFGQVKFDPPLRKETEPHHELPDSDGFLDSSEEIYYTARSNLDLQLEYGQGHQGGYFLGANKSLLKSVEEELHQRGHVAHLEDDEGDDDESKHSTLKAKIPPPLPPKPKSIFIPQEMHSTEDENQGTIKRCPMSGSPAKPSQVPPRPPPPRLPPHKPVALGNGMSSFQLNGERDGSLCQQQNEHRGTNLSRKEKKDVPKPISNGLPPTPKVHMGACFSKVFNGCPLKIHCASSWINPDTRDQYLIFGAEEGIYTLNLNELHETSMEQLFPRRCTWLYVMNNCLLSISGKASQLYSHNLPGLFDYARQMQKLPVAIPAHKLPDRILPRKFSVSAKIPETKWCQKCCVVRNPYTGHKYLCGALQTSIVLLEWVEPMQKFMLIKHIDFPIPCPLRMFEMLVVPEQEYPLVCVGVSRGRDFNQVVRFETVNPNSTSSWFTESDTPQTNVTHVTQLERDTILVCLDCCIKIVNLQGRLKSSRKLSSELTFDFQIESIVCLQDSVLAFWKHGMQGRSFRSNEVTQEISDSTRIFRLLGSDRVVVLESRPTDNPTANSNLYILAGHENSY
# [2] = target: Phosphatidylinositol 4-phosphate 3-kinase C2 domain-containing subunit beta (Homo sapiens) (UniProt O00750); assay: Inhibition of PIK3C2B (unknown origin) assessed as residual activity at 100 nM by KINOMEscan analysis relative to control
# Chain of Phosphatidylinositol 4-phosphate 3-kinase C2 domain-containing subunit beta (Homo sapiens) (O00750 whole entry, the tested form may be a part): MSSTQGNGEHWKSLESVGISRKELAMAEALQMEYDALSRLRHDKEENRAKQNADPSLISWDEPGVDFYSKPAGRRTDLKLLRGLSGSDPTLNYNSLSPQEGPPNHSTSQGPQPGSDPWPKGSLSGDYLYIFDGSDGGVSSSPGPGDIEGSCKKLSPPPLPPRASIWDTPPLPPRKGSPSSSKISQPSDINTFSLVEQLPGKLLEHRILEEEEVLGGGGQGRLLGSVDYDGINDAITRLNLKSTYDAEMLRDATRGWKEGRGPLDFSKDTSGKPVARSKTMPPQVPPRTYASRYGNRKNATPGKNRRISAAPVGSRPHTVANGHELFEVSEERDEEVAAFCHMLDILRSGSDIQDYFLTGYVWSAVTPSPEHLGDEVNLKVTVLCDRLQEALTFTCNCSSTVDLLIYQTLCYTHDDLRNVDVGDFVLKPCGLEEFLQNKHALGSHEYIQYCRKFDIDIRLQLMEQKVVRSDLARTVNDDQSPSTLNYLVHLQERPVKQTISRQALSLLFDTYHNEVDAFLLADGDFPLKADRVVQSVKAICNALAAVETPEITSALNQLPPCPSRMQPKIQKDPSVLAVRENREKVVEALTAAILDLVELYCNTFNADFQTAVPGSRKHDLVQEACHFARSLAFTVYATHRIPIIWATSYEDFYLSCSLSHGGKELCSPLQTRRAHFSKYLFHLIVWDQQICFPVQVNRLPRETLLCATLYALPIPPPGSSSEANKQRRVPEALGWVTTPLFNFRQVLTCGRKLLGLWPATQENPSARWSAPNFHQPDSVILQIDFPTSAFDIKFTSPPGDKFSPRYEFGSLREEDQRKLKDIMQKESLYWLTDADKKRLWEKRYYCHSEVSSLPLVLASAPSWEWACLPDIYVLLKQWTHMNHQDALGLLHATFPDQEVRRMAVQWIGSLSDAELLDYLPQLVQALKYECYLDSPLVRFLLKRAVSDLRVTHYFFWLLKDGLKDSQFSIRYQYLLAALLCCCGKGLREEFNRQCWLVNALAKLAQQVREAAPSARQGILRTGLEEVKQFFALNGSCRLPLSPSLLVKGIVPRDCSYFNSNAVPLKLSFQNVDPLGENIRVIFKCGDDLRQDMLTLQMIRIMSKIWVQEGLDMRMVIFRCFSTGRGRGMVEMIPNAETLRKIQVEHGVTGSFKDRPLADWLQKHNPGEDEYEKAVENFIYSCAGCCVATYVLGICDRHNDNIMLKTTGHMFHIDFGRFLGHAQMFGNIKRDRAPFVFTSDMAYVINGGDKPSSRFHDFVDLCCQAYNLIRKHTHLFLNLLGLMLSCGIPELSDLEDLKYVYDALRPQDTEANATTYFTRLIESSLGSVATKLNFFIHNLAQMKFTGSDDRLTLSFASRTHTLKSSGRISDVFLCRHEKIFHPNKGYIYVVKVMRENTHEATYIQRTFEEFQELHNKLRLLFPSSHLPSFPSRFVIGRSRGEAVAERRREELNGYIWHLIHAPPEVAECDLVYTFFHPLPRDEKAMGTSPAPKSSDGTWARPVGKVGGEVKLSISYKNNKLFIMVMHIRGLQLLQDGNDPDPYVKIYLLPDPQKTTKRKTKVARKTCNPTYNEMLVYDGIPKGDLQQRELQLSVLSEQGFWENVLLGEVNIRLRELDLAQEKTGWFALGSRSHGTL
# [3] = target: T2, Mitogen-activated protein kinase 13 (Homo sapiens) (UniProt O15264); assay: Inhibition of p38-delta (unknown origin) assessed as residual activity at 100 nM by KINOMEscan analysis relative to control
# T2 sequence (whole entry): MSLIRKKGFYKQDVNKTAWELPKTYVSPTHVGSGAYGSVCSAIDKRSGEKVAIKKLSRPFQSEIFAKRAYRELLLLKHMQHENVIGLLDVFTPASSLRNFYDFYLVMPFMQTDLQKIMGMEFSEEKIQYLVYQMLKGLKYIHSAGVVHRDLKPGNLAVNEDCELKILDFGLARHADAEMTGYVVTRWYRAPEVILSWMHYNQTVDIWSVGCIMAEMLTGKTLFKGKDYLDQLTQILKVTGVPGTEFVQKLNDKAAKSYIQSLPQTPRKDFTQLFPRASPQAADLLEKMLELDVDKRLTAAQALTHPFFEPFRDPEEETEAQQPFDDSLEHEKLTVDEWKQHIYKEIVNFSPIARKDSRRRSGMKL
# [4] = target: T3, Serine/threonine-protein kinase Nek2 (Homo sapiens) (UniProt P51955); assay: Inhibition of NEK2 (unknown origin) assessed as residual activity at 100 nM by KINOMEscan analysis relative to control
# T3 sequence (whole entry): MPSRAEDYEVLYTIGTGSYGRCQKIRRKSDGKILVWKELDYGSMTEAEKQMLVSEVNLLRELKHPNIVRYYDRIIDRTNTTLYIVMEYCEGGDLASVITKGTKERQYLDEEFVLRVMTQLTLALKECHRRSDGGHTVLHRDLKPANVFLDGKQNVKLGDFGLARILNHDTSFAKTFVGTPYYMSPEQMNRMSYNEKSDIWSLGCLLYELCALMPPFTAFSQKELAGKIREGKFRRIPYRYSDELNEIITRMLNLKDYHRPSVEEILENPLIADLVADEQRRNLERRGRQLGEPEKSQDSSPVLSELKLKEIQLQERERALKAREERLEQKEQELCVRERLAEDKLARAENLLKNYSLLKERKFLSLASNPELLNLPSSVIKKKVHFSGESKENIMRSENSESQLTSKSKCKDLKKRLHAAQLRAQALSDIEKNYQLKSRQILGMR
# [5] = target: T4, Dual serine/threonine and tyrosine protein kinase (Homo sapiens) (UniProt Q6XUX3); assay: Inhibition of RIPK5 (unknown origin) assessed as residual activity at 100 nM by KINOMEscan analysis relative to control
# T4 sequence (whole entry): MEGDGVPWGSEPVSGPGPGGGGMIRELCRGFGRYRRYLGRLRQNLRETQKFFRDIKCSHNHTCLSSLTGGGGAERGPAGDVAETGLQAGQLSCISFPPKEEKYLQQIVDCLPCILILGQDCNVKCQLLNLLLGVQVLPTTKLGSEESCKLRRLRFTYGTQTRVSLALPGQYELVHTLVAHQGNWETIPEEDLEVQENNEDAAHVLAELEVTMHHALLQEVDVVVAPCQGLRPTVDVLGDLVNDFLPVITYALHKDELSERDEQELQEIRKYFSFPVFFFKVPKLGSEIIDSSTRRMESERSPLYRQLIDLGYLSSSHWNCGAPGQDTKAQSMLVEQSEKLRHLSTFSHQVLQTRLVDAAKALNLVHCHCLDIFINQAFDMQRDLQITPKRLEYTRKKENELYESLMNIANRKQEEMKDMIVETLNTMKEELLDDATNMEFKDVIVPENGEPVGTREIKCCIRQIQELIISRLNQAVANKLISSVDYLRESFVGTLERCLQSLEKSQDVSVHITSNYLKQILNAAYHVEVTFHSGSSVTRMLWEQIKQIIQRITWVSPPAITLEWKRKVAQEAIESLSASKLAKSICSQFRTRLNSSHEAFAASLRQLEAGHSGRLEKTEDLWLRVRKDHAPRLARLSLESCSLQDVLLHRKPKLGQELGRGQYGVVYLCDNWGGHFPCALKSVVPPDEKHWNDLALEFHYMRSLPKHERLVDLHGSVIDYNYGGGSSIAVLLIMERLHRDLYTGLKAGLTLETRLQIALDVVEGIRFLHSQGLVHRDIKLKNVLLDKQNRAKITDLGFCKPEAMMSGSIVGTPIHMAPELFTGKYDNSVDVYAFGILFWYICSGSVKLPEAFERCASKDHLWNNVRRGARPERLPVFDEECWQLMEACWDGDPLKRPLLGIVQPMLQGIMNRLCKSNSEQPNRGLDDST
# [6] = target: Mitogen-activated protein kinase kinase kinase 12 (Homo sapiens) (UniProt Q12852); assay: Inhibition of DLK (unknown origin) assessed as residual activity at 100 nM by KINOMEscan analysis relative to control
# Chain of Mitogen-activated protein kinase kinase kinase 12 (Homo sapiens) (Q12852 whole entry, looked up): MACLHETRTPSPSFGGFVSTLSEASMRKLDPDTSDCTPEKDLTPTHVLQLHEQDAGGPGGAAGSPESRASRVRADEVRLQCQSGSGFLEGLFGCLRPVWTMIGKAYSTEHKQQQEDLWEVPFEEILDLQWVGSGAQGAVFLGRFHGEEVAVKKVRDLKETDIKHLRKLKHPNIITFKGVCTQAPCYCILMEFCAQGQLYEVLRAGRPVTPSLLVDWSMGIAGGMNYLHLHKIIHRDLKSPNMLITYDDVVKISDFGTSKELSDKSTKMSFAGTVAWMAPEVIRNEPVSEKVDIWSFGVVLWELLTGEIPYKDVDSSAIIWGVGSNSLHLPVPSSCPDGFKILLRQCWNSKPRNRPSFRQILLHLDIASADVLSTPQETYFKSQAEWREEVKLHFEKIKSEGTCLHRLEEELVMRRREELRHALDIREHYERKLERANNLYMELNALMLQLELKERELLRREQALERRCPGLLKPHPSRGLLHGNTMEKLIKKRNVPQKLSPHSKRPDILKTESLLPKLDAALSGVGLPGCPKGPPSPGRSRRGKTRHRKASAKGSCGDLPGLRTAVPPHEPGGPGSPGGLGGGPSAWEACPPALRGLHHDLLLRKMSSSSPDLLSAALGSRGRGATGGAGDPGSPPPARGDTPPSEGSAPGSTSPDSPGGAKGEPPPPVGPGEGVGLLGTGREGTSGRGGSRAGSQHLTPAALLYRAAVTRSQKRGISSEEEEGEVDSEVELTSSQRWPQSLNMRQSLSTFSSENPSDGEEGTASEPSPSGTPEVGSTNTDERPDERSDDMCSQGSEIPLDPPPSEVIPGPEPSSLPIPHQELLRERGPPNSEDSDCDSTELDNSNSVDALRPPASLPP
smiles,measurement,setting,value
COc1cc2ncnc(N[C@H](C)c3cccc4ccccc34)c2cc1OC,Activity,[1],85%
same,Activity,[2],81%
same,Activity,[3],100%
same,Activity,[4],100%
same,Activity,[5],96%
same,Activity,[6],89%
